{"source": "ChEMBL document CHEMBL1201862", "about": "“PubChem BioAssay data set” (2004)", "key": {"[1]": {"target": "T1, Heat shock factor protein 1 (Mus musculus, UniProt P38532)", "T1 sequence (P38532 whole entry)": "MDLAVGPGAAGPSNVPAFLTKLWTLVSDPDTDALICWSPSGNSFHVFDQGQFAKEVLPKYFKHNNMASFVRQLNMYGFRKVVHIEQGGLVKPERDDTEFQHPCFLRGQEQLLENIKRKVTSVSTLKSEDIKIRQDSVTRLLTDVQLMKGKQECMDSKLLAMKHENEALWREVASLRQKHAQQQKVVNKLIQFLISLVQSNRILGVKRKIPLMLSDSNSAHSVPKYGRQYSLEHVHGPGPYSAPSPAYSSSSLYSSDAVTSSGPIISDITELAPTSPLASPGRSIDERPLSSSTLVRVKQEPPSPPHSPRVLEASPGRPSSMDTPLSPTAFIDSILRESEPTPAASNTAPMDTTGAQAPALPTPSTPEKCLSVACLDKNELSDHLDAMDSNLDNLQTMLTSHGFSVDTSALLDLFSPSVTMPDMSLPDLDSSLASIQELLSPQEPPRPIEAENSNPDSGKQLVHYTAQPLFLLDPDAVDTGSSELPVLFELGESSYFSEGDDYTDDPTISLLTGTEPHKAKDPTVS", "assay": "decrease of HSF1-responsive luciferase luminescence – cell-based, NIH3T3, dose retest, confirmation (AID 2382);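 note: NIH3T3 fibroblasts with HSF1-driven luciferase reporter stressed by proteasome inhibitor MG132; luminescence from HSF1-driven luciferase expression after 8 hours of MG132 stress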", "assay_type": "functional"}, "Cytochrome P450 2C19": {"target": "Cytochrome P450 2C19 (Homo sapiens, UniProt P33261)", "sequence (P33261 whole entry)": "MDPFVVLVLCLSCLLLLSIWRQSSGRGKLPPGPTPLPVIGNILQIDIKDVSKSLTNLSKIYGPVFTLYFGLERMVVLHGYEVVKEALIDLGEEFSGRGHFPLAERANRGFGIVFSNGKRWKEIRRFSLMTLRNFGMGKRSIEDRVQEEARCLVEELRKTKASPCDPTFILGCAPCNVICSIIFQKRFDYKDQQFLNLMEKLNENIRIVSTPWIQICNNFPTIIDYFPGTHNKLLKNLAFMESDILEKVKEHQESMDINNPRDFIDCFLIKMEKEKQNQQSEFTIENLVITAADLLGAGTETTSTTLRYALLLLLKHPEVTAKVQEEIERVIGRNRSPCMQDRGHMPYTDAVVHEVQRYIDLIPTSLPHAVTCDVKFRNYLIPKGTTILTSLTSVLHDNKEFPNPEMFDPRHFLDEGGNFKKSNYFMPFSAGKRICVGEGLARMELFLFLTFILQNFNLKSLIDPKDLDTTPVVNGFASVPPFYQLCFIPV", "assay": "Cytochrome panel assay with activity outcomes. Panel member name: p450-cyp2c19 Compounds with AC50 equal or less than 10 uM are considered active", "assay_type": "functional"}, "[2]": {"system": "Streptococcus sp. 'group A'", "assay": "Streptococcus pyogenes SK(-)GAS viability under kanamycin – luminescence, BacTiterGlo, confirmation, counter-screen for streptokinase expression inhibitor project, dose response (AID 1900)", "assay_type": "functional, organism-based"}, "Streptokinase A": {"target": "T2, Streptokinase A (Streptococcus pyogenes serotype M1, UniProt P10520)", "T2 sequence (P10520 whole entry)": "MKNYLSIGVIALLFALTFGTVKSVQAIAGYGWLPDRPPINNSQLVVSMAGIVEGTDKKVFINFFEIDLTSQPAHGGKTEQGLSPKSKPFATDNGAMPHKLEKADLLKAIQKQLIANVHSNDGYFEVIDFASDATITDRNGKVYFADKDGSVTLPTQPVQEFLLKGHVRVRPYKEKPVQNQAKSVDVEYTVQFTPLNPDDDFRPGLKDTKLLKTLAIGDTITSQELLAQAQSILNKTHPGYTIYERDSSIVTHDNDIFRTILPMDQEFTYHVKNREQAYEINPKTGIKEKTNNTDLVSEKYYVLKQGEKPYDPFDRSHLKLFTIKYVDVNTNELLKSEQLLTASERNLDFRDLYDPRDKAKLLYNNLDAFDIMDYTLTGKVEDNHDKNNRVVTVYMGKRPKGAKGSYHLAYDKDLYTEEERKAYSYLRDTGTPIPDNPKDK", "assay": "viability-normalized secreted streptokinase activity reduction – plasminogen activation absorbance, OD405, dose response (AID 1914);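 note: secreted streptokinase activity via plasminogen activation per viability signal from cell pellet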", "assay_type": "functional, Streptococcus pyogenes M1 GAS"}, "Streptococcus": {"system": "Streptococcus", "assay": "GAS UMAA2166 growth inhibition – luminescence, BacTiterGlo, counter-screen for streptokinase expression inhibitor project, dose response (AID 1915);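 note: potency for reduction of bacterial viability or growth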", "assay_type": "functional, organism-based"}, "Cytochrome P450 2D6": {"target": "Cytochrome P450 2D6 (Homo sapiens, UniProt P10635)", "sequence (P10635 whole entry)": "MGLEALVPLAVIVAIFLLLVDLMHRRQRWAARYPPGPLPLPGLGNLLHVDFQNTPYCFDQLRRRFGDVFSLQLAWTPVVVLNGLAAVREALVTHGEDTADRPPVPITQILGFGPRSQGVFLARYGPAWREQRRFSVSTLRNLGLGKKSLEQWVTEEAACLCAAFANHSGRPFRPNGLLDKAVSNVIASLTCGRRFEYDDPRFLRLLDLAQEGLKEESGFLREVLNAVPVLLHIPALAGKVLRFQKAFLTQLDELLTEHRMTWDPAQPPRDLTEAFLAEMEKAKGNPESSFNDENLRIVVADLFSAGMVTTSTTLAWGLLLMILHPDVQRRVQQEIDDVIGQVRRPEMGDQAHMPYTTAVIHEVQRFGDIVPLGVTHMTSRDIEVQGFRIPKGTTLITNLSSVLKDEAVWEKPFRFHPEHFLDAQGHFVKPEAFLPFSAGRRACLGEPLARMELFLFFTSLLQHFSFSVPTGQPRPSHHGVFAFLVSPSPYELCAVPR"}, "Cytochrome P450 2C9": {"target": "Cytochrome P450 2C9 (Homo sapiens, UniProt P11712)", "sequence (P11712 whole entry)": "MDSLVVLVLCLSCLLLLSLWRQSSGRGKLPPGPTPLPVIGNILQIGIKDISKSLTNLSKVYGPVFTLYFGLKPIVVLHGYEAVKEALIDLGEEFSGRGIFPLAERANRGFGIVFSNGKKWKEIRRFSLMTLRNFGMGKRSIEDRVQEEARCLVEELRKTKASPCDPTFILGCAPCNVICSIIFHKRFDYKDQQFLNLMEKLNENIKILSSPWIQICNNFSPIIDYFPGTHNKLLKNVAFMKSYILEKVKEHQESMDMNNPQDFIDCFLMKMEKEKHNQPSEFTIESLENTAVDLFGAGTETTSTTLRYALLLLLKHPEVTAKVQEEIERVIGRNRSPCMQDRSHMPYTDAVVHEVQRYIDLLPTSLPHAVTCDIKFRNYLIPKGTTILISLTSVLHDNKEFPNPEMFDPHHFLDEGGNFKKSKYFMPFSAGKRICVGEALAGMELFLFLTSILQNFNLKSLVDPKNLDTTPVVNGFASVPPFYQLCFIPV"}, "Cytochrome P450 1A2": {"target": "T3, Cytochrome P450 1A2 (Homo sapiens, UniProt P05177)", "T3 sequence (P05177 whole entry)": "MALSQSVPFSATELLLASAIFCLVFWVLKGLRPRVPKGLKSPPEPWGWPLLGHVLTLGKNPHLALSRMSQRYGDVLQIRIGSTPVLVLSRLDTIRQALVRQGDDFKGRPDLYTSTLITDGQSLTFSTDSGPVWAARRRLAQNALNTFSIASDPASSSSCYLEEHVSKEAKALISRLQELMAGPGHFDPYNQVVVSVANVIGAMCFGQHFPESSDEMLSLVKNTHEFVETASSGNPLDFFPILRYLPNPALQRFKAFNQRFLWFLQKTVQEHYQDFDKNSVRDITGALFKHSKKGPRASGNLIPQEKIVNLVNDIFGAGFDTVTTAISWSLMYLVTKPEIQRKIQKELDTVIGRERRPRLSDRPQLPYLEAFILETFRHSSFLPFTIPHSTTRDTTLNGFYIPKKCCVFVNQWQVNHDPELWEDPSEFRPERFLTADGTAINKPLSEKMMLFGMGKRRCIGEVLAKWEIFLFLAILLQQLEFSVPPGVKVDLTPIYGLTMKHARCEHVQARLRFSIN"}, "[3]": {"assay": "viability of uninfected HEp-2 cells – cell-based, HTS, cytotoxicity control for RSV inhibitor project, dose response (AID 2410)", "assay_type": "functional", "conditions": "human respiratory syncytial virus"}, "[4]": {"assay": "Luminescence Cell-Based Dose Retest to Confirm Inhibitors of Cancer Stem Cells. [Related pubchem assays (depositor defined):AID2717, AID2721]", "assay_type": "functional", "conditions": "Homo sapiens"}, "[5]": {"target": "T4, RNA-binding protein pos-1 (Caenorhabditis elegans, UniProt G5EF15)", "T4 sequence (G5EF15 whole entry)": "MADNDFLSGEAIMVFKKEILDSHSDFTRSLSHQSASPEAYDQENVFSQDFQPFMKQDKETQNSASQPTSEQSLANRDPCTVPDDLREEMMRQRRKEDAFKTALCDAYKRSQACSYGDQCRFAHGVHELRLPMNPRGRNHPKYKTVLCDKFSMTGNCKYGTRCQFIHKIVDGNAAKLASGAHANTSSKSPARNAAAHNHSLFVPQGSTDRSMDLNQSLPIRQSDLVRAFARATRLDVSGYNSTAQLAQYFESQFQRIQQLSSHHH", "assay": "disruptors of C. elegans POS-1 RNA interaction – biochemical, fluorescence polarization, dose response (AID 1964);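 note: purified POS-1 fused to maltose binding protein made in E. coli; potency of compounds blocking POS-1 binding to fluorescent RNA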"}, "[6]": {"target": "FAD-linked sulfhydryl oxidase ALR (Homo sapiens, UniProt P55789)", "sequence (P55789 whole entry)": "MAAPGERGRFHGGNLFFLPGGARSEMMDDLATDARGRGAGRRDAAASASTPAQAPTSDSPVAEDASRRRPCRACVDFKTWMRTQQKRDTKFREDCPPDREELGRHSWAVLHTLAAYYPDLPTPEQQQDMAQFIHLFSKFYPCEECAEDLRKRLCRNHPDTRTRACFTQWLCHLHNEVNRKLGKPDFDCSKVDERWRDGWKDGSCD", "assay": "ALR-catalysed DTT oxidation blockers – biochemical, H2O2 detection, luminescence, cherry-pick, dose response (AID 493248)"}, "H4": {"system": "H4", "assay": "Luminescence Cell-Based Dose Response HTS to Identify Activators of 5'UTR Stem-Loop Driven Prion Protein mRNA Translation in H4 Neuroglioblastoma Cells. [Related pubchem assays: 1829 (Project Summary), 1814 (Primary HTS)]", "assay_type": "functional", "conditions": "Homo sapiens"}}, "note": "Active and inactive are the calls of the source."}
{"smiles": "Oc1ccccc1-c1nnc(-c2ccc(C(F)(F)F)cc2)o1", "values": [{"measurement": "EC50", "setting": "[1]", "value": "> 195 µM (not active)"}, {"measurement": "AC50", "setting": "Cytochrome P450 2C19; read-out: AC50", "value": "39.8 µM (inconclusive)"}]}
{"smiles": "CC(C)(C)c1ccc(CN(Cc2ccco2)Cc2nnnn2C2CCCC2)cc1", "values": [{"measurement": "EC50", "setting": "[2]", "value": "5.71 µM (active)"}, {"measurement": "EC50", "setting": "Streptokinase A", "value": "12.7 µM (active)"}, {"measurement": "EC50", "setting": "Streptococcus", "value": "> 150 µM (not active)"}, {"measurement": "AC50", "setting": "Cytochrome P450 2D6", "value": "22.4 µM (inconclusive)"}]}
{"smiles": "CCc1nc(N[C@H](C(=O)O)C(C)CC)c2oc3ccccc3c2n1", "note": "(stereo partly drawn)", "values": [{"measurement": "AC50", "setting": "Cytochrome P450 2C19", "value": "inconclusive"}, {"measurement": "AC50", "setting": "Cytochrome P450 2C9", "value": "0.00891 µM (inconclusive)"}]}
{"smiles": "C[C@@H](C(=O)Cc1ccc2ccccc2c1)[C@@H]1C[C@@]1(C)[C@@H](NP(=O)(c1ccccc1)c1ccccc1)c1ccccc1", "values": [{"measurement": "AC50", "setting": "Cytochrome P450 1A2", "value": "10 µM (inconclusive)"}]}
{"smiles": "COCCn1c(=O)c(-c2cccs2)nc2cnc(N3CCNCC3)nc21", "values": [{"measurement": "AC50", "setting": "Cytochrome P450 2C19; read-out: AC50", "value": "25.1 µM (inconclusive)"}]}
{"smiles": "O=[N+]([O-])c1ccc(S(=O)(=O)Nc2cccc(-c3ccc(N4CCOCC4)nn3)c2)cc1", "values": [{"measurement": "CC50", "setting": "[3]", "value": "> 50 µM (active)"}]}
{"smiles": "O=C(Nc1cccc(C(F)(F)F)c1)C1CCCN1S(=O)(=O)c1cccc2cccnc12", "note": "(stereo not drawn)", "values": [{"measurement": "AC50", "setting": "Cytochrome P450 2D6", "value": "31.6 µM (inconclusive)"}, {"measurement": "AC50", "setting": "Cytochrome P450 1A2", "value": "3.16 µM (inconclusive)"}, {"measurement": "AC50", "setting": "Cytochrome P450 2C9", "value": "5.62 µM (inconclusive)"}]}
{"smiles": "CCCCCn1c(=O)c(C(=O)c2ccccc2)nc2ccccc21", "values": [{"measurement": "AC50", "setting": "Cytochrome P450 2D6", "value": "28.2 µM (inconclusive)"}]}
{"smiles": "Cc1cc(N2CCOCC2)nc2ccc(N=C(S)N3CCCCC3C)cc12", "note": "(stereo not drawn)", "values": [{"measurement": "CC50", "setting": "[3]", "value": "18.2 µM (active)"}]}
{"smiles": "Cc1cc2c(cc1S(=O)(=O)N1CCN(c3ccc(Cl)cc3)CC1)OCCN2C", "values": [{"measurement": "CC50", "setting": "[3]", "value": "41 µM (active)"}]}
{"smiles": "CCc1nc(N2CCC(C)CC2)c2oc3ccccc3c2n1", "values": [{"measurement": "AC50", "setting": "[4]", "value": "4.63 µM (active)"}]}
{"smiles": "COc1ccc(CNc2ncncc2-c2c(C)noc2C)c(OC)c1", "values": [{"measurement": "AC50", "setting": "Cytochrome P450 1A2", "value": "25.1 µM (inconclusive)"}]}
{"smiles": "C1=C(c2sc3ccccc3c2-c2ccc(OCCN3CCOCC3)cc2)CCCC1", "values": [{"measurement": "AC50", "setting": "[4]", "value": "2.71 µM (active)"}]}
{"smiles": "CCCc1cc(O)nc(SCC(=O)Nc2sc(C(N)=O)c(C)c2C(=O)OCCOC)n1", "values": [{"measurement": "AC50", "setting": "[4]", "value": "3.6 µM (active)"}]}
{"smiles": "CN(C)CCNC(=O)C(C(=O)c1ccc(F)cc1)n1ccccc1=O", "note": "(stereo not drawn)", "values": [{"measurement": "AC50", "setting": "Cytochrome P450 1A2", "value": "0.631 µM (inconclusive)"}]}
{"smiles": "COCCNC(=S)N/N=C(\\C)c1ccc(OC(F)F)cc1", "values": [{"measurement": "CC50", "setting": "[3]", "value": "> 50 µM (active)"}]}
{"smiles": "C(=N\\N=C(\\Nc1ccccc1)c1ccccn1)/c1ccccn1", "values": [{"measurement": "EC50", "setting": "[5]", "value": "> 300 µM (inconclusive)"}]}
{"smiles": "C/C(CC(=O)Nc1ccc(Cl)c(C(F)(F)F)c1)=N\\NC(=O)c1cc2ccccc2cc1O", "values": [{"measurement": "EC50", "setting": "[2]", "value": "1.57 µM (active)"}, {"measurement": "EC50", "setting": "Streptokinase A", "value": "> 150 µM (not active)"}, {"measurement": "EC50", "setting": "Streptococcus", "value": "8.14 µM (active)"}, {"measurement": "AC50", "setting": "[4]", "value": "8.61 µM (active)"}]}
{"smiles": "Cc1ccc(/C=N/n2c(S)nnc2-c2cccs2)cc1", "values": [{"measurement": "AC50", "setting": "Cytochrome P450 2C19; read-out: AC50", "value": "3.55 µM (inconclusive)"}, {"measurement": "AC50", "setting": "Cytochrome P450 2D6", "value": "5.01 µM (inconclusive)"}]}
{"smiles": "Cc1ccc2nc(C)cc(N/N=C/c3ccccc3O)c2c1", "values": [{"measurement": "AC50", "setting": "[6]", "value": "4.03 µM (active)"}]}
{"smiles": "CC(/C=N/NC(=O)c1cccc([N+](=O)[O-])c1)=C\\c1ccccc1", "values": [{"measurement": "AC50", "setting": "Cytochrome P450 1A2", "value": "1.78 µM (inconclusive)"}]}
{"smiles": "Cc1nc(N/N=C/c2ccc(O)cc2)c2cnn(-c3ccccc3)c2n1", "values": [{"measurement": "CC50", "setting": "[3]", "value": "42.8 µM (active)"}]}
{"smiles": "CC1(C)Cc2c(sc(NC(=O)Nc3ccccc3)c2C(N)=O)CO1", "values": [{"measurement": "EC50", "setting": "H4", "value": "> 120 µM (not active)"}]}
{"smiles": "O=C(c1ccc(F)cc1)C1CCN(CCn2c(=S)[nH]c3ccccc3c2=O)CC1", "note": "[ALTANSERIN]", "values": [{"measurement": "AC50", "setting": "Cytochrome P450 2D6", "value": "10 µM (inconclusive)"}, {"measurement": "AC50", "setting": "Cytochrome P450 1A2", "value": "15.8 µM (inconclusive)"}, {"measurement": "AC50", "setting": "Cytochrome P450 2C9", "value": "25.1 µM (inconclusive)"}]}
{"smiles": "CN(C)CC/C=C1\\c2ccccc2CSc2ccccc21", "note": "[DOTHIEPIN]", "values": [{"measurement": "AC50", "setting": "Cytochrome P450 2D6", "value": "7.94 µM (inconclusive)"}]}
